From patent US7405216B2, “Stable crystalline form of bifeprunox mesylate (7-[4-([1,1′-biphenyl]-3-ylmethyl)-1-piperazinyl]-2(3H)-benzoxazolone monomethanesulfonate)” (Solvay Pharmaceuticals, B.V., priority 2004, dated 2008)

Assay: Stability of the crystalline polymorphic forms of bifeprunox mesylate
Assay type: physicochemical
Conditions: for thermodynamic stability of the polymorphic form: solid crystalline form, found during further investigations, monomethanesulfonate

SMILES | conversion of the polymorphic form (even at high atmospheric humidity or higher temperature) | thermodynamic stability of the polymorphic form
O=c1[nH]c2cccc(N3CCN(Cc4cccc(-c5ccccc5)c4)CC3)c2o1 [polymorph α, 7-[4-([1,1′-biphenyl]-3-ylmethyl)-1-piperazinyl]-2(3H)-benzoxazolone monomethanesulfonate] | does not undergo conversion | more thermodynamically stable
O=c1[nH]c2cccc(N3CCN(Cc4cccc(-c5ccccc5)c4)CC3)c2o1 [polymorph γ, 7-[4-([1,1′-biphenyl]-3-ylmethyl)-1-piperazinyl]-2(3H)-benzoxazolone monomethanesulfonate] | – | metastable
O=c1[nH]c2cccc(N3CCN(Cc4cccc(-c5ccccc5)c4)CC3)c2o1 [polymorph δ, 7-[4-([1,1′-biphenyl]-3-ylmethyl)-1-piperazinyl]-2(3H)-benzoxazolone monomethanesulfonate] | – | metastable
